Tests used:
[1] = molecular target: Amine oxidase [flavin-containing] B (Bos taurus) (UniProt P56560)
[2] = molecular target: Amine oxidase [flavin-containing] A (Bos taurus) (UniProt P21398)

Sequence of Amine oxidase [flavin-containing] B (Bos taurus) (P56560 whole entry, looked up): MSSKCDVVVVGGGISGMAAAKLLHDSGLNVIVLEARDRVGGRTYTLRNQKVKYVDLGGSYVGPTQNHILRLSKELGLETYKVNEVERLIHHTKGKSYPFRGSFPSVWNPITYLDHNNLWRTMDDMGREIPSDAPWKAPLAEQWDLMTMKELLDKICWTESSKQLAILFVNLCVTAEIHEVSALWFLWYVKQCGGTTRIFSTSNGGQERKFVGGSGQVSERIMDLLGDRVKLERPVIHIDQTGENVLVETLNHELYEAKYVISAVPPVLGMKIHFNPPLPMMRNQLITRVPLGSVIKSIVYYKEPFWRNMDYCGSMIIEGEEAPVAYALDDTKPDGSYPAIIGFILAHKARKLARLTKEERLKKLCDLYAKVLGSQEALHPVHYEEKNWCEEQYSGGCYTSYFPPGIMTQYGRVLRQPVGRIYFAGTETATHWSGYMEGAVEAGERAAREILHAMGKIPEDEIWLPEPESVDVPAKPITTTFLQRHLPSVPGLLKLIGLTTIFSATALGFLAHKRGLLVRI

IC50 [1]: 1000 nM
IC50 [2]: 501 nM
SMILES: CCOC(=O)C1=Cc2cc(Cl)ccc2CC1=O

Source: ChEMBL document CHEMBL1137934, “Inhibition of monoamine oxidases by coumarin-3-acyl derivatives: biological activity and computational study” (Bioorg Med Chem Lett, 2004)
